Laboratory results from ChEMBL document CHEMBL5154656, “High-Throughput Screening Platform in Postnatal Heart Cells and Chemical Probe Toolbox to Assess Cardiomyocyte Proliferation” (J Med Chem, 2022).
One block for each compound: values may come before it. Active and inactive are the calls of the source. No cut-off for these calls is given here.

Legend:
[1] = Cytotoxicity against mouse Cardiomyocytes assessed as toxicity at > 1 uM; assay type: cell-based; details: cardiac muscle cell
Cardiac muscle cell [2] = experiment: Cytotoxicity against rat Cardiomyocytes assessed as toxicity at > 1 uM; assay type: cell-based
Cardiac muscle cell [3] = experiment: Induction of cell proliferation in postnatal day 1 Wistar rat cardiac cells assessed as enhancement cardiomyocyte numbers by measuring alphaAct+; assay type: functional, cell-based
Cardiac muscle cell [4] = experiment: Induction of cell proliferation in postnatal day 1 Wistar rat cardiac cells assessed as increase in cardiomyocyte numbers by measuring alphaAct+ at 0.33 to 5 uM; assay type: functional, cell-based; details: dose 0.33-5 µM
Cardiac Muscle Cell [5] = experiment: Induction of cell proliferation in postnatal day 6 mouse cardiac cells assessed as stimulation in pro-prolierative responses; assay type: functional, cell-based; details: dose 0.33-10 µM, DDE = dose-dependent effect
Cardiac muscle cell [6] = experiment: Induction of cell proliferation in postnatal day 6 rat cardiac cells assessed as stimulation in pro-prolierative responses; assay type: functional, cell-based; details: dose 0.1-10 µM, DDE = dose-dependent effect
Cardiac muscle cell [7] = experiment: Induction of cell proliferation in postnatal day 6 rat cardiac cells assessed as increase in CM numbers at 0.33 to 5 uM; assay type: functional, cell-based; details: dose 0.33-5 µM
Cardiac Muscle Cell [8] = experiment: Induction of cell proliferation in postnatal day 1 mouse cardiac cells assessed as increase in CM numbers at 0.33 to 5 uM; assay type: functional, cell-based; details: dose 0.33-5 µM
Cardiac Muscle Cell [9] = experiment: Induction of cell proliferation in postnatal day 6 mouse cardiac cells assessed as increase in CM numbers at 0.33 to 5 uM; assay type: functional, cell-based; details: dose 0.33-5 µM
Cardiac muscle cell [10] = experiment: Induction of cell proliferation in postnatal day 6 Wistar rat cardiac cells assessed as enhancement cardiomyocyte numbers by measuring alphaAct+; assay type: functional, cell-based
Cardiac Muscle Cell [11] = experiment: Induction of cell proliferation in postnatal day 1 CD1 mouse cardiac cells assessed as enhancement in cardiomyocyte numbers by measuring alphaAct+; assay type: functional, cell-based
Cardiac Muscle Cell [12] = experiment: Induction of cell proliferation in postnatal day 6 CD1 mouse cardiac cells assessed as enhancement in cardiomyocyte numbers by measuring alphaAct+; assay type: functional, cell-based
[13] = Cytotoxicity against mouse Cardiomyocytes assessed as toxicity at 0.33 to 10 uM; assay type: cell-based; details: cardiac muscle cell, dose 0.33-10 µM
Cardiac muscle cell [14] = experiment: Cytotoxicity against rat Cardiomyocytes assessed as toxicity at 0.33 to 10 uM; assay type: cell-based; details: dose 0.33-10 µM
Cardiac muscle cell [15] = experiment: Pro-proliferative activity in Wistar rat cardiac cells from P1 early postnatal developmental time points assessed as effect on cell number by measuring alphaAct/Ki67 cardiomyocyte nuclei at 0.33 to 10 uM by DAPI analysis; assay type: functional, cell-based; details: dose 0.33-10 µM
Cardiac muscle cell [16] = experiment: Pro-proliferative activity in Wistar rat cardiac cells from P6 late postnatal developmental time points assessed as effect on cell number by measuring alphaAct/Ki67 cardiomyocyte nuclei at 0.33 to 10 uM by DAPI analysis; assay type: functional, cell-based; details: dose 0.33-10 µM
Cardiac Muscle Cell [17] = experiment: Induction of cell proliferation in postnatal day 6 CD1 mouse heart assessed as increase in number of cardiomyocyte by measuring mCherry+ cardiomyocyte nuclei at 0.001 to 1 uM; assay type: functional, cell-based; details: dose 0.001-1 µM, DDE = dose-dependent effect
Cardiac Muscle Cell [18] = experiment: Induction of cell proliferation in postnatal day 6 mouse cardiac cells assessed as increase in total CM nuclei number; assay type: functional, cell-based
Cardiac Muscle Cell [19] = experiment: Induction of cell proliferation in postnatal day 1 transgenic mouse cardiac cells assessed as increase in percentage of eGFP-anillin-positive cardiomyocytes; assay type: functional, cell-based
Cardiac Muscle Cell [20] = experiment: Induction of cell proliferation in postnatal day 6 transgenic mouse cardiac cells assessed as increase in percentage of eGFP-anillin-positive cardiomyocytes; assay type: functional, cell-based
Cardiac Muscle Cell [21] = experiment: Induction of cell proliferation in postnatal day 1 transgenic mouse cardiac cells assessed as increase in total CM nuclei number; assay type: functional, cell-based
Cardiac Muscle Cell [22] = experiment: Induction of cell proliferation in postnatal day 1 transgenic mouse cardiac cells assessed as increase in bi-nucleation; assay type: functional, cell-based
Cardiac muscle cell [23] = experiment: Induction of cell proliferation in postnatal day 5 rat cardiac cells assessed as increase in total CM nuclei number; assay type: functional, cell-based
Cardiac muscle cell [24] = experiment: Induction of cell proliferation in postnatal day 5 rat cardiac cells assessed as increase in nuclear to cytoplasmic YAP ratio for 4 to 24 hrs by immunostaining analysis; assay type: functional, cell-based; details: time 4-24 hrs
[25] = target: Mitogen-activated protein kinase 14 (Homo sapiens) (UniProt Q16539); experiment: Inhibition of P38alphaMAPK (unknown origin) relative to control; details: concentration not given here
Chain of Mitogen-activated protein kinase 14 (Homo sapiens) (Q16539 whole entry): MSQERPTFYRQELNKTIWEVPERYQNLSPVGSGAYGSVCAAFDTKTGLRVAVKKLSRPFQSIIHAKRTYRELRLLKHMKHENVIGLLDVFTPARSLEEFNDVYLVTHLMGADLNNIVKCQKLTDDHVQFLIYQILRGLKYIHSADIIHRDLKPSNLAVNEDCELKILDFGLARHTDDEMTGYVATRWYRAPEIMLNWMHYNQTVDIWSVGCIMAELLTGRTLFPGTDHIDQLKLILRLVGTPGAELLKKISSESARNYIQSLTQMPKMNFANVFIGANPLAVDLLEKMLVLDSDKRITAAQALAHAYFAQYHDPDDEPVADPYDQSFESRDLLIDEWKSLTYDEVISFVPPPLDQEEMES

[26] = target: Mitogen-activated protein kinase 11 (Homo sapiens) (UniProt Q15759); experiment: Inhibition of P38betaMAPK (unknown origin) relative to control; details: concentration not given here
Chain of Mitogen-activated protein kinase 11 (Homo sapiens) (Q15759 whole entry): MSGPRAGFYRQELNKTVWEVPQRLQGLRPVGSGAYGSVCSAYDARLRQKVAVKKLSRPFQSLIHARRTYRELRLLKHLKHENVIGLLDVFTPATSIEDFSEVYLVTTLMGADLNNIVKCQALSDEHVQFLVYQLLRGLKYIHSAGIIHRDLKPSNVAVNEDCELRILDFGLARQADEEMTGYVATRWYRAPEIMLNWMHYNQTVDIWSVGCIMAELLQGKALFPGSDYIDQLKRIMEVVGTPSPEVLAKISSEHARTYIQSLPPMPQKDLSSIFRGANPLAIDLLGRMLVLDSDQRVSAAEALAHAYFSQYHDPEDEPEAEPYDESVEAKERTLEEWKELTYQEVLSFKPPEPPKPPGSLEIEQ

Cardiac muscle cell [27] = experiment: Induction of cell proliferation in postnatal day 6 rat cardiac cells assessed as increasing in number of cardiomyocytes; assay type: functional, cell-based; details: dose 0.1-10 µM, DDE = dose-dependent effect

Structure (SMILES): CCn1c(=O)[nH]c2ccccc21
- Activity [1]: Toxic
- Activity (Cardiac muscle cell [2]): Toxic

Structure (SMILES): COc1nccc(-c2c(-c3ccc(F)cc3)ncn2[C@H]2CC[C@H](O)CC2)n1
- Activity (Cardiac muscle cell [3]): Active
- Activity (Cardiac muscle cell [4]): Active
- Activity (Cardiac Muscle Cell [5]): Dde
- Activity (Cardiac muscle cell [6]): Dde
- Activity (Cardiac muscle cell [7]): Active
- Activity (Cardiac Muscle Cell [8]): Active
- Activity (Cardiac Muscle Cell [9]): Active
- Activity (Cardiac muscle cell [10]): Active
- Activity (Cardiac Muscle Cell [11]): Active
- Activity (Cardiac Muscle Cell [12]): Active
- Activity [13]: Non-Toxic
- Activity (Cardiac muscle cell [14]): Non-Toxic

Structure (SMILES): O=C(NCC(O)CO)c1ccc2c(c1)C(=O)c1ccc(Nc3ccc(F)cc3F)cc1CC2 (stereo not drawn)
- Activity (Cardiac muscle cell [15]): Active
- Activity (Cardiac muscle cell [16]): Active

Structure (SMILES): O=C(OCCN1CCOCC1)c1ccc2c(c1)C(=O)c1ccc(Nc3ccc(F)cc3F)cc1CC2
- Activity (Cardiac muscle cell [15]): Active
- Activity (Cardiac muscle cell [16]): Active

Structure (SMILES): CN1CCN(Cc2ccc(NC(=O)Nc3ccc(Oc4cc(NC(=O)C5CC5)ncn4)cc3)cc2C(F)(F)F)CC1
- Activity (Cardiac Muscle Cell [17]): Dde
- Activity (Cardiac Muscle Cell [18]): Active
- Activity (Cardiac Muscle Cell [19]): Active
- Activity (Cardiac Muscle Cell [20]): Active
- Activity (Cardiac Muscle Cell [21]): Active
- Activity (Cardiac Muscle Cell [22]): Active
- Activity (Cardiac muscle cell [23]): Active

Structure (SMILES): Cc1c[nH]c(-c2cnc(NCCNc3ccc(C#N)cn3)nc2-c2ccc(Cl)cc2Cl)n1 [LADUVIGLUSIB]
- Activity [13]: Non-Toxic
- Activity (Cardiac muscle cell [14]): Non-Toxic

Structure (SMILES): CN1CCN(Cc2ccc(NC(=O)Cc3ccc(Oc4cc(NC(=O)C5CC5)ncn4)cc3)cc2C(F)(F)F)CC1
- Activity (Cardiac Muscle Cell [17]): Dde
- Activity (Cardiac Muscle Cell [18]): Active
- Activity (Cardiac Muscle Cell [19]): Active
- Activity (Cardiac Muscle Cell [20]): Active
- Activity (Cardiac Muscle Cell [21]): Active
- Activity (Cardiac Muscle Cell [22]): Active
- Activity (Cardiac muscle cell [23]): Active
- Activity (Cardiac muscle cell [24]): Active
- Activity [13]: Non-Toxic
- Activity (Cardiac muscle cell [14]): Non-Toxic

- inhibition [25]: 99.8%
- inhibition [26]: 99.8%
Structure (SMILES): O=C1c2ccc(Nc3ccc(F)cc3F)cc2CCc2ccc(OC[C@H](O)CO)cc21
- Activity (Cardiac muscle cell [15]): Active
- Activity (Cardiac muscle cell [16]): Active

Structure (SMILES): Cc1cnc(-c2cnc(NCCNc3ccc(C#N)cn3)nc2-c2ccc(Cl)cc2Cl)[nH]1
- Activity (Cardiac muscle cell [27]): Dde
- Activity (Cardiac muscle cell [24]): Active
